Where two headings read alike, the source gives them in different places.
Assays:
[1] = tested on: T. ni moths; test: Oviposition choice (deterrence) bioassay on cabbage leaves; type: in vivo, Trichoplusia ni; conditions: for Oviposition deterrency: Table 6 summary class, 0.25%; for pest or weed control at 0.25 %: Trichoplusia, read-out: OD (%), mean ± SE (n = 25-33); for % deterrence / Index = deterrence/mortality: Table 11; for % deterrence: BL mark not explained; for Index = deterrence/mortality: oviposition deterrence divided by mortality
Experimental: (§1) Initial screening for feeding deterrent effects was conducted at 50 μg/cm^2 in feeding deterrent bioassays.
T. ni larvae were reared on normal diet from neonates (<24 h old) until pupation. Pupae were sexed and put in separate plastic containers until emergence. After eclosion, pairs of moths (one male and one female) were introduced into each cage with a control and a treated cabbage leaf. Pairs of moths (n=25) were used per treatment. Each leaf (approximately 100-110 cm^2) was sprayed with 0.5 mL of MeOH or a methanolic solution of the test chemical on each side. Eggs were counted on each cabbage leaf after 48 h.

[2] = tested on: third instar T. ni larvae; test: Leaf disk choice feeding deterrence bioassay; type: in vivo, Trichoplusia ni; conditions: for Feeding deterrency: Table 6 summary class; for pest or weed control at 50 µg/cm2, 50 µg/cm2 / pest or weed control at 50 µg/cm2: Trichoplusia, foliar; for pest or weed control at 50 µg/cm2: feeding deterrence (FD), Table 12, non-toxic feeding deterrents, read-out: % deterrence; for DC50: feeding deterrence DC50, unit not given in Table 12
Text: Cabbage plants (Brassica oleraceae var. Stonehead) used in the bioassays were routinely grown in plastic pots with a mixture of sandy loam soil and peat moss (4:1) in a greenhouse at the University of British Columbia, Vancouver, BC, Canada. Leaves were collected from cabbage plants that were 5-6 weeks old.
T. ni larvae and moths were obtained from a long established colony (>50 generations) maintained on an artificial diet, Velvetbean Caterpillar Diet No. F9796 [Bio-Sery Inc. (Frenchtown, NIL)] in the insectary of the University of British Columbia (UBC).
as §1
Larvae were given the choice of feeding on two leaf disks, one treated with 10 μL of a solution of the test substance painted on each side and the other treated with a carrier solvent alone. The number of larvae was 25 per treatment.
Feeding deterrence data (percent) for initial screening concentration were analyzed by analysis of variance (ANOVA) after arcsin transformation using statistics software (Statistix 7. Analytical Software, Statistix 7 for Windows 95, 98, NT, 2000. Analytical Software, Tallahassee).

[3] = tested on: third instar T. ni larvae; test: whole plant or invertebrate; conditions: for mortality at 0.25 %: Trichoplusia, topical, 24 h
Experimental: as §1
Mortality was determined 24 h after spraying larvae directly with test solutions. Third instar T. ni larvae were sprayed in 90 mm×15 mm Petri dishes (Falcon) lined with Fisher Scientific filter paper (90 mm diameter). Small plastic hand spraying bottles (50 mL capacity) were used. Larvae were then transferred to Petri dishes (90 mm×15 mm) with a small piece of artificial diet. Each Petri dish contained 10 larvae. Three replicates, each consisting of 10 larvae, were used per treatment.

[4] = tested on: T. ni moths; test: Oviposition choice (deterrence) bioassay on cabbage leaves; type: in vivo, Trichoplusia ni; conditions: Trichoplusia, 48 h, Table 8; at 0.25%; read-out: OD (%) Mean ± SE N = 35-40
[5] = Table 5, 1,2-dialkoxybenzenes, feeding deterrence at 50 μg/cm^2, read-out: FD (%), mean ± SE (n = 25)
[6] = contact toxicity to larvae, negative or zero values replaced by 0.1 for the index (footnote b)
[7] = Table 4, 1,3-dialkoxybenzenes, feeding deterrence at 50 μg/cm^2, read-out: FD (%), mean (SE (n = 25))
[8] = Table 3, 1,4-dialkoxybenzenes, feeding deterrence at 50 μg/cm^2
[9] = Table 3, 1,4-dialkoxybenzenes, feeding deterrence at 50 μg/cm^2, read-out: FD (%), mean ± SE (n = 25)
[10] = oviposition deterrence at 0.25%

Compound: CCCOc1cccc(OCCC)c1 [drawing 18]
- Oviposition deterrency [1]: moderate (moderate, >25%)
- Feeding deterrency ([2]; 50 μg/cm^2): strong (Strong feeding deterrency, >80%)

Compound: COc1ccccc1O [1-hydroxy-2-methoxybenzene]
- pest or weed control at 50 µg/cm2, 50 µg/cm2 [2, 5]: -7.5%

Compound: CCCOc1cccc(OCCC)c1 [3b{3,3}, 1,3-Dipropoxy benzene]
- LC50 ([3]; Table 4, concentration causing 50% mortality): 0.16%
- mortality at 0.25 % ([3]; read-out: mortality (%) (n = 3 × 10), Table 4, at 0.25%): 76.7%
- % mortality [3, 6]: 77%
- pest or weed control at 0.25 % ([1]; 48 h, Table 4, oviposition deterrence at 0.25%, 48 h): 33%
- pest or weed control at 50 µg/cm2, 50 µg/cm2 [2, 7]: 96.9 ± 3.1%
- pest or weed control at 50 µg/cm2 [2]: 97%
- DC50 [2]: 27 μg/cm^2

Compound: COc1ccc(O)cc1 [2c{1}, 4-Methoxy phenol]
- FD (%), mean ± SE (n = 25) [2, 8]: feeding stimulants
- pest or weed control at 50 µg/cm2, 50 µg/cm2 [2, 9]: -26.5 ± 18.6%

Compound: COc1cccc(OC)c1 [3b{1,1}, 1,3-Dimethoxy benzene]
- pest or weed control at 50 µg/cm2, 50 µg/cm2 [2, 7]: 20.4 ± 19.1%

Compound: CCOc1ccc(OCC)cc1 [3c{2, 2}, 1,4-Diethoxy benzene]
- LC50 ([3]; Table 3, concentration causing 50% mortality compared with the control): 0.03%
- % mortality ([3]; Table 11, at 0.25%): 100%
- mortality at 0.25 % ([3]; read-out: mortality (%) (n = 3 × 10), Table 3, at 0.25%): 100%
- % mortality [3, 6]: 100%
- OD (%), mean ± SE (n = 25-33) ([1]; Table 3, oviposition deterrence at 0.25%, 48 h): 74.7 ± 13.3a %
- % deterrence [1, 10]: 75%
- Index = deterrence/mortality [1]: 0.75
- pest or weed control at 0.25 % ([1]; 48 h, Table 3, oviposition deterrence at 0.25%, 48 h): 74.7%
- pest or weed control at 50 µg/cm2, 50 µg/cm2 [2, 9]: 80.8 ± 11.3%
- pest or weed control at 50 µg/cm2 [2]: 81%
- DC50 [2]: 26 μg/cm^2

Compound: CCCOc1ccc(OCCC)cc1 [drawing 22]
- Oviposition deterrency [1]: weak (weak, >10%)
- Feeding deterrency ([2]; 50 μg/cm^2): strong (Strong feeding deterrency, >80%)

Compound: COc1ccccc1OC [3a{1,1}, 1,2-Dimethoxy benzene]
- pest or weed control at 50 µg/cm2, 50 µg/cm2 ([2]; read-out: FD (%), mean ± SE (n = 25)): 26 ± 17.6%

Compound: COc1cccc(OCCC(C)C)c1 [3b{1, 5}, 1-methoxy-3-(3-methyl-butyloxy)benzene]
- mortality at 0.25 % ([3]; read-out: Mortality (%) N = 3 × 10, Table 8, at 0.25%): 30%
- pest or weed control at 0.25 % [4]: 25 to 30%
- pest or weed control at 50 µg/cm2, 50 µg/cm2 ([2]; Table 8, 50 μg/cm^2, read-out: F.D (%) Mean ± SE N = 25): 89 ± 7%

Compound: CCCOc1ccc(O)cc1 [2c{3}, 4-Propoxy phenol]
- FD (%), mean ± SE (n = 25) [2, 8]: feeding stimulants
- pest or weed control at 50 µg/cm2, 50 µg/cm2 [2, 9]: -28 ± 18.4%

Compound: butyl eugenol
- % mortality ([3]; in vivo): 15%
- % deterrence [1, 10]: 34 BL %
- Index = deterrence/mortality [1]: 2.2

Compound: CCOc1ccc(OCC)cc1 [drawing 17]
- Oviposition deterrency [1]: strong (Strong oviposition deterrency, >50%)
- Feeding deterrency ([2]; 50 μg/cm^2): strong (Strong feeding deterrency, >80%)

Compound: CCOc1ccccc1O [2a{2}, 2-Ethoxy phenol]
- pest or weed control at 50 µg/cm2, 50 µg/cm2 [2, 5]: -5.3%

Compound: CC(C)CCOc1cccc(O)c1 [2b{4}, 3-(3-Methyl-butyloxy)phenol]
- pest or weed control at 50 µg/cm2, 50 µg/cm2 [2, 7]: -5.8 ± 18.7%

Compound: COc1cccc(O)c1 [2b{1}, 3-Methoxy phenol]
- pest or weed control at 50 µg/cm2, 50 µg/cm2 [2, 7]: 44.7 ± 17.5%

Compound: CCOc1ccccc1OCC [3a{2,2}, 1,2-Diethoxy benzene]
- pest or weed control at 50 µg/cm2, 50 µg/cm2 [2, 5]: -2.1%

Compound: C=CCOc1ccc(OCC=C)cc1 [drawing 23]
- Oviposition deterrency [1]: weak (weak, >10%)
- Feeding deterrency ([2]; 50 μg/cm^2): strong (Strong feeding deterrency, >80%)

Compound: CC(C)CCOc1ccc(O)cc1 [2c{5}, 4-(3-Methyl-butyloxy)phenol]
- pest or weed control at 50 µg/cm2, 50 µg/cm2 [2, 9]: 29.5 ± 16.6%

Compound: CCCCOc1ccccc1O [2a{4}, 2-Butoxy phenol]
- pest or weed control at 50 µg/cm2, 50 µg/cm2 [2, 5]: 12 ± 20.3%

Compound: C=CCOc1ccccc1OCC=C [3a{6,6}, 1,2-Diallyloxy benzene]
- mortality at 0.25 % ([3]; read-out: mortality (%) (n = 3 × 10), Table 5, at 0.25%): 20%
- pest or weed control at 0.25 % ([1]; 48 h, Table 5, oviposition deterrence at 0.25%, 48 h): 15%
- pest or weed control at 50 µg/cm2, 50 µg/cm2 [2, 5]: 70.4 ± 13.2%
